Measurements reported in patent publication US7432283B2, “Heterocyclic GABAA subtype selective receptor modulators” (Roche Palo Alto LLC, priority 2004, dated 2008).

How the values were obtained:
GABAA α2β3γ2 = molecular target: T1, GABAA α2β3γ2 (Homo sapiens, UniProt P18507+P28472+P47869); assay: 35S-TBPS binding assay, GABAA α2β3γ2; conditions: 35S-TBPS (5 nM) competition, GABA 1 μM, HEK293 cell membranes, 2 hours at room temperature; for IC50: read-out: pIC50 α2β3γ2 (converted)
T1 construct: expressed in transfected cells; host or cells: HEK293
T1 sequence (P47869 29-451): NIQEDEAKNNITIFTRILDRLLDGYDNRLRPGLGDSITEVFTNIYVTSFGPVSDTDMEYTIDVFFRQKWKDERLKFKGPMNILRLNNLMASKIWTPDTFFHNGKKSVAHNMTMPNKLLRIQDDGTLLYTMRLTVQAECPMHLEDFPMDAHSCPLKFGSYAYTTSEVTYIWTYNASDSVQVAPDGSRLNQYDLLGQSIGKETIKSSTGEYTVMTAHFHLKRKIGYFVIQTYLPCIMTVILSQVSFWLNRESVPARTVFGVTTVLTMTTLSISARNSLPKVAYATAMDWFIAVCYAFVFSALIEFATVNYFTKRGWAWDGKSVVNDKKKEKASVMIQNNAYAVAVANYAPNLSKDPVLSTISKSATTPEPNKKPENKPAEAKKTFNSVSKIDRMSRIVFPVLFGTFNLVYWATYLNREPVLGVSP
T1 sequence (P28472 26-473): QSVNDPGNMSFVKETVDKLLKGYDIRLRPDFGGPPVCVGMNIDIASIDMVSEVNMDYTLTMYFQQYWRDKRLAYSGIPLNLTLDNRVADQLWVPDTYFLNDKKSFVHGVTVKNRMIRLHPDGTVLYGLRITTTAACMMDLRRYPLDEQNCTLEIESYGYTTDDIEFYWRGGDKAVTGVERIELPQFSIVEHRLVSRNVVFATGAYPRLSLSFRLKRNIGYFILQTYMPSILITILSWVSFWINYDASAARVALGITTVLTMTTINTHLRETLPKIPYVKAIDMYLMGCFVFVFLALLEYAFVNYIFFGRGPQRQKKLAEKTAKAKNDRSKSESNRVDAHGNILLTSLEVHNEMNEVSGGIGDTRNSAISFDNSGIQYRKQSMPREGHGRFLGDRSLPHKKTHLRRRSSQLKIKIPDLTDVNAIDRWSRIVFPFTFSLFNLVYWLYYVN
T1 sequence (P18507 40-475): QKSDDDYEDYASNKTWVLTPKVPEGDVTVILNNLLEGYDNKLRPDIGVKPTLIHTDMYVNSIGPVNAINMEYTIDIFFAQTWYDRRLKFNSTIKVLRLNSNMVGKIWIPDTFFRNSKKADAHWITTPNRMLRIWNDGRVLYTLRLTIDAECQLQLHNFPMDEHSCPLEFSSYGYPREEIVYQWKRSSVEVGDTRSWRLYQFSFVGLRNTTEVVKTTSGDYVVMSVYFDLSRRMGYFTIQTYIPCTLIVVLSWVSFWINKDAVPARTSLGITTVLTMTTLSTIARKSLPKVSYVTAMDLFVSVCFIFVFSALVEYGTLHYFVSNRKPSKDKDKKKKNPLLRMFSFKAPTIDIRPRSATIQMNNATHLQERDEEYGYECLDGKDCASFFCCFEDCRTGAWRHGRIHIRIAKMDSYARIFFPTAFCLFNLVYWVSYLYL
Procedure: (§1) The binding assay is based on the assay reported by K. Gee et al., Eur. J. Pharmacol. 1987 136:419-423.
(§2) Homogenate preparation: Membrane preparations of HEK293 cells containing either GABAA α1β2γ2 or GABAA α2β3γ2 constructs were performed according to a modified procedure previously described by Gee et al. (supra). Whole HEK 293 cells in D-PBS (calcium/magnesium free) buffer adjusted to pH 7.4 were centrifuged at 7,280×g for 20 m. After discarding the supernatant, the pellet was resuspended in the buffer and centrifuged at 1,820×g for 10 m. Afterwards, the supernatant was discarded and the pellet resuspended in ice-cold preparation buffer (50 mM Tris HCl pH 7.4, 4° C. and 150 mM KCl), homogenized for 30 sec using a Brinkmann Polytron PT3000 (setting 6) and centrifuged at 48,000×g for 30 m at 4° C. The centrifugation and homogenization procedure was repeated two more times for a total of 3 times before resuspending the membranes at a final protein concentration of 0.5 mg/mL. Aliquots (30 mL) of the final membrane preparation were then centrifuged at 48,000×g for 30 m, and the resulting pellets were stored at −80° C. until required.
(§3) 35S-TBPS binding assay. Membrane pellets containing either GABAA α1β2γ2 or GABAA α2β3γ2 constructs were thawed on ice, resuspended in 10 mL of 50 mM Tris HCl pH 7.4, 4° C. and 150 mM KCl and centrifuged at 48,000×g, 30 m at 4° C. After discarding the supernatant, the pellet was resuspended in 30 mL incubation buffer (50 mM Tris HCl pH 7.4, 25° C. and 150 mM KCl) at approximately 0.5 mg/mL protein concentration. In ^35S-TBPS competition studies, HEK293 membranes were incubated with ^35S-TBPS (5 nM final) and GABA (1 μM) in the absence or presence of competitor at concentrations ranging from 0.01 nM to 10 μM in 125 μL incubation buffer for 2 hours at room temperature (˜22° C.). Non-specific binding was assayed with picrotoxin (100 μM final concentration). […] Measurement of bound radioactivity was performed using a Packard Microplate 96 well topcount scintillation counter. […]

GABAA α1β2γ2 = molecular target: T2, GABAA α1β2γ2 (Homo sapiens, UniProt P14867+P18507+P47870); assay: 35S-TBPS binding assay, GABAA α1β2γ2; conditions: 35S-TBPS (5 nM) competition, GABA 1 μM, HEK293 cell membranes, 2 hours at room temperature; for IC50: read-out: pIC50 α1β2γ2 (converted)
T2 construct: expressed in transfected cells; host or cells: HEK293
T2 sequence (P14867 28-456): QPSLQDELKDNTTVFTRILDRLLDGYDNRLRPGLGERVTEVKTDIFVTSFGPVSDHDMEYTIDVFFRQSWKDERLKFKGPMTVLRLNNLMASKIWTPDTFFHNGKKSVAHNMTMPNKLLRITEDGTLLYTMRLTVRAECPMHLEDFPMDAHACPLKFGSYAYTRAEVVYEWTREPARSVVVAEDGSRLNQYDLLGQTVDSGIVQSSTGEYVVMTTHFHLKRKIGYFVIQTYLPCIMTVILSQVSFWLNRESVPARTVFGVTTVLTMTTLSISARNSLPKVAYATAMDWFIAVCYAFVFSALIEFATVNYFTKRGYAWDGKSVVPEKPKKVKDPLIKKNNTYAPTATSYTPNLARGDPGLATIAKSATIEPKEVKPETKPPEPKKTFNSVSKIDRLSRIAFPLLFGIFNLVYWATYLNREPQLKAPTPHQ
T2 sequence (P47870 25-512 limits assumed): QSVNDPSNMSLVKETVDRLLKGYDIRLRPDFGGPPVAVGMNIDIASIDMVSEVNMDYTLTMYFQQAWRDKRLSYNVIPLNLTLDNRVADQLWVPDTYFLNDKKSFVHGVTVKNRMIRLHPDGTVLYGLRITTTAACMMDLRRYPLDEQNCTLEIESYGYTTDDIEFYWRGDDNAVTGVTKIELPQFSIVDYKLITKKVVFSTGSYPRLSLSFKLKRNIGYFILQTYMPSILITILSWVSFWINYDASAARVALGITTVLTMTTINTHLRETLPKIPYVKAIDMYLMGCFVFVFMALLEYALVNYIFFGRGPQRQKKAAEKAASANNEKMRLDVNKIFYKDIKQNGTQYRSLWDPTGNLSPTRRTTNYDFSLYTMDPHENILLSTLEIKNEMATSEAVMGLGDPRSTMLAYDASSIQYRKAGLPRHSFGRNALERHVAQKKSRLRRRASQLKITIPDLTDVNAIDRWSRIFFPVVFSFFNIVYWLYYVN
T2 sequence (P18507 40-475): as the sequence (P18507 40-475) above
Procedure: as §1, §2, §3

IC50 (GABAA α2β3γ2) [nM]	IC50 (GABAA α1β2γ2) [nM]	melting point [°C]	Compound	pIC50 α2β3γ2 (GABAA α2β3γ2)	pIC50 α1β2γ2 (GABAA α1β2γ2)
			7-(2,4-Dichloro-phenyl)-3-ethynyl-2-methyl-4,5,6,7-tetrahydro-2H-|pyrazolo[3,4-b]pyridine [Compound 3-10]	6.883	5.423
96.4	1200	94.5 to 95.5	Cn1nc2c(c1Cl)CCCN2c1ccc(Cl)cc1Cl [Compound 1-9, 3-chloro-7-(2,4-dichloro-phenyl)-2-methyl-4,5,6,7-tetrahydro-2H-pyrazolo [3,4-b]pyridine]		
105	2840	66.6 to 76.6	Cc1c2c(nn1C)N(c1ccc(Cl)cc1Cl)CCC2 [Compound 2-17, 7-(2,4-Dichloro-phenyl)-2,3-dimethyl-4,5,6,7-tetrahydro-2H-pyrazolo[3,4-b]pyridine]		
